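Cultured in 96-well plates, cells were exposed to test compound for 48 hours across five concentrations. GI50 is the concentration that inhibits growth by half.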 Calls of active or inactive are those of the source. Cut-off read from the data, not from the text of the source: active = GI50 up to about 1.1 µM and inactive = higher.
Tests used:
Assay in all cases: DTP human tumour cell line panel, 48 h
EKVX = system: EKVX
HCT-15 = system: HCT-15
HOP-62 = system: HOP-62
Hs-578T = system: Hs-578T
K562 = system: K562
MOLT-4 = system: MOLT-4
NCI-H226 = system: NCI-H226
NCI-H522 = system: NCI-H522
OVCAR-8 = system: OVCAR-8
RPMI-8226 = system: RPMI-8226
RXF 393 = system: RXF 393
SF-295 = system: SF-295
SK-MEL-5 = system: SK-MEL-5
SNB-19 = system: SNB-19
SNB-75 = system: SNB-75
SR = system: SR
T47D = system: T47D
U-251 = system: U-251
Malme-3M = system: Malme-3M

Row | SMILES | GI50 (EKVX) | GI50 (HCT-15) | GI50 (HOP-62) | GI50 (Hs-578T) | GI50 (K562) | GI50 (MOLT-4) | GI50 (NCI-H226) | GI50 (NCI-H522) | GI50 (OVCAR-8) | GI50 (RPMI-8226) | GI50 (RXF 393) | GI50 (SF-295) | GI50 (SK-MEL-5) | GI50 (SNB-19) | GI50 (SNB-75) | GI50 (SR) | GI50 (T47D) | GI50 (U-251) | GI50 (Malme-3M)
1 | Nc1ccc2c(c1)NC(=O)[C@@H]1CCCN1C2=O | > 100 µM (inactive) | > 100 µM | > 100 µM (inactive) | > 100 µM (inactive) | > 100 µM (inactive) | > 100 µM (inactive) | > 100 µM (inactive) | > 100 µM (inactive) | > 100 µM (inactive) | > 100 µM (inactive) | > 100 µM (inactive) | > 100 µM (inactive) | > 100 µM (inactive) | > 100 µM (inactive) | > 100 µM (inactive) | > 100 µM (inactive) | 96.6 µM (inactive) | > 100 µM (inactive) | –
2 | O=C1OC([C@H](O)c2cccnc2)c2ccccc21 (stereo not given in full) | > 10 µM (inactive) | > 10 µM | > 10 µM (inactive) | > 10 µM (inactive) | > 10 µM (inactive) | > 10 µM (inactive) | > 10 µM (inactive) | > 10 µM (inactive) | > 10 µM (inactive) | > 10 µM (inactive) | > 10 µM (inactive) | > 10 µM (inactive) | > 10 µM (inactive) | > 10 µM (inactive) | > 10 µM (inactive) | > 10 µM (inactive) | > 10 µM (inactive) | > 10 µM (inactive) | –
3 | c1ccc(B2OCC(C3OB(c4ccccc4)OC4COB(c5ccccc5)OC43)O2)cc1 (stereo not given) | > 100 µM (inactive) | > 100 µM | > 100 µM (inactive) | > 100 µM (inactive) | > 100 µM (inactive) | > 100 µM (inactive) | – | 24.5 µM (inactive) | > 100 µM (inactive) | > 100 µM (inactive) | > 100 µM (inactive) | > 100 µM (inactive) | > 100 µM (inactive) | > 100 µM (inactive) | > 100 µM (inactive) | > 100 µM (inactive) | > 100 µM (inactive) | > 100 µM (inactive) | > 100 µM (inactive)
4 | Clc1sc(Cl)c2c1[C@@H](Cl)C[C@@H]2Cl | 62.5 µM (inactive) | > 100 µM | > 100 µM (inactive) | 38.1 µM (inactive) | 48.5 µM (inactive) | 46.6 µM (inactive) | 57.3 µM (inactive) | 18.9 µM (inactive) | > 100 µM (inactive) | – | – | > 100 µM (inactive) | > 100 µM (inactive) | – | 33.3 µM (inactive) | 33.6 µM (inactive) | 45.4 µM (inactive) | > 100 µM (inactive) | 29.7 µM (inactive)
